Source: ChEMBL document CHEMBL2413059, “Novel quinoxaline 1,4-di-N-oxide derivatives as new potential antichagasic agents” (Eur J Med Chem, 2013)

Key:
[1] = test system: Salmonella typhimurium; assay: Mutagenicity in Salmonella typhimurium TA98 at 0.06 to 5 ug/plate after 1 hr by Ames test in presence of S9 fraction; assay type: toxicity, organism-based; conditions: salmonella enterica subsp. enterica serovar typhimurium, s9, 1 h
[2] = test system: J774; assay: Cytotoxicity against mouse J774 cells assessed as cell viability after 48 hrs by MTT assay; assay type: cell-based; conditions: J774, 48 h
[3] = test system: Salmonella typhimurium; assay: Mutagenicity in Salmonella typhimurium TA98 at 0.06 to 5 ug/plate after 1 hr by Ames test in absence of S9 fraction; assay type: toxicity, organism-based; conditions: salmonella enterica subsp. enterica serovar typhimurium
[4] = Selectivity index, ratio of IC50 for mouse J774 cells to IC50 for epimastigote form of Trypanosoma cruzi Tulahuen 2; assay type: toxicity, cell-based; conditions: read-out: Ratio IC50
[5] = test system: Trypanosoma cruzi; assay: Antichagasic activity against epimastigote form of Trypanosoma cruzi Tulahuen 2 assessed as parasite growth inhibition at 25 uM measured on day 5 relative to control; assay type: functional; conditions: Tulahuen 2, 120 h, read-out: GI
[6] = test system: Trypanosoma cruzi; assay: Antichagasic activity against epimastigote form of Trypanosoma cruzi Tulahuen 2 assessed as parasite growth inhibition measured on day 5; assay type: functional, organism-based; conditions: Tulahuen 2, 120 h
[7] = test system: Salmonella typhimurium; assay: Mutagenicity in Salmonella typhimurium TA98 at 0.3 to 25 ug/plate after 1 hr by Ames test in absence of S9 fraction; assay type: toxicity, organism-based; conditions: salmonella enterica subsp. enterica serovar typhimurium
[8] = test system: Salmonella typhimurium; assay: Mutagenicity in Salmonella typhimurium TA98 at 0.3 to 25 ug/plate after 1 hr by Ames test in presence of S9 fraction; assay type: toxicity, organism-based; conditions: salmonella enterica subsp. enterica serovar typhimurium, s9, 1 h
[9] = test system: Trypanosoma cruzi; assay: Ratio of nifurtimox IC50 to compound IC50 for epimastigote form of Trypanosoma cruzi Tulahuen 2; assay type: functional
[10] = test system: Salmonella typhimurium; assay: Mutagenicity in Salmonella typhimurium TA98 at 1.2 X 10^-3 to 5 ug/plate after 1 hr by Ames test in absence of S9 fraction; assay type: toxicity, organism-based; conditions: salmonella enterica subsp. enterica serovar typhimurium
[11] = test system: Salmonella typhimurium; assay: Mutagenicity in Salmonella typhimurium TA98 at 1.2 X 10^-3 to 5 ug/plate after 1 hr by Ames test in presence of S9 fraction; assay type: toxicity, organism-based; conditions: salmonella enterica subsp. enterica serovar typhimurium, s9, 1 h
[12] = test system: Salmonella typhimurium; assay: Mutagenicity in Salmonella typhimurium TA98 at 0.012 to 1 ug/plate after 1 hr by Ames test in presence of S9 fraction; assay type: toxicity, organism-based; conditions: salmonella enterica subsp. enterica serovar typhimurium, s9, 1 h
[13] = test system: Salmonella typhimurium; assay: Mutagenicity in Salmonella typhimurium TA98 at 0.012 to 1 ug/plate after 1 hr by Ames test in absence of S9 fraction; assay type: toxicity, organism-based; conditions: salmonella enterica subsp. enterica serovar typhimurium
[14] = test system: Salmonella typhimurium; assay: Mutagenicity in Salmonella typhimurium TA98 at 0.06 to 12.5 ug/plate after 1 hr by Ames test in presence of S9 fraction; assay type: toxicity, organism-based; conditions: salmonella enterica subsp. enterica serovar typhimurium, s9, 1 h
[15] = test system: Salmonella typhimurium; assay: Mutagenicity in Salmonella typhimurium TA98 at 0.06 to 12.5 ug/plate after 1 hr by Ames test in absence of S9 fraction; assay type: toxicity, organism-based; conditions: salmonella enterica subsp. enterica serovar typhimurium
[16] = test system: Salmonella typhimurium; assay: Mutagenicity in Salmonella typhimurium TA98 at 0.61 to 50 ug/plate after 1 hr by Ames test in presence of S9 fraction; assay type: toxicity, organism-based; conditions: salmonella enterica subsp. enterica serovar typhimurium, s9, 1 h
[17] = test system: Salmonella typhimurium; assay: Mutagenicity in Salmonella typhimurium TA98 at 0.61 to 50 ug/plate after 1 hr by Ames test in absence of S9 fraction; assay type: toxicity, organism-based; conditions: salmonella enterica subsp. enterica serovar typhimurium

SMILES | IC50 [6] [µM] | Activity [1] | IC50 [2] [µM] | Activity [3] | selectivity ratio [4] | inhibition of growth at 25 µM [5] [%] | also measured
COC(=O)c1c(C(F)(F)F)[n+]([O-])c2ccc(C(F)(F)F)cc2[n+]1[O-] | 5 | Non-toxic | 4 | Non-toxic | 0.8 | 100 | 
CCOC(=O)c1c(C(F)(F)F)[n+]([O-])c2ccc(OC)cc2[n+]1[O-] | 4.8 |  | 6 |  | 1.2 | 100 | Activity [7]: Toxic; Activity [8]: Toxic
COC(=O)c1c(C(F)(F)F)[n+]([O-])c2ccc(F)cc2[n+]1[O-] | 3.5 |  | 2.5 |  | 0.7 | 100 | Activity [7]: Toxic; Activity [8]: Non-toxic
CC1CS(=O)(=O)CCN1/N=C/c1ccc([N+](=O)[O-])o1 (configuration not stated) [NIFURTIMOX] |  |  | 316 |  | 41 | 100 | 
COC(=O)c1c(C(F)(F)F)[n+]([O-])c2ccc(Cl)cc2[n+]1[O-] | 1.8 |  |  |  |  | 100 | Activity [10]: Toxic; Activity [11]: Non-toxic
COC(=O)c1c(C(F)(F)F)[n+]([O-])c2cc(Cl)c(Cl)cc2[n+]1[O-] | 10.8 |  | 0.5 |  | < 0.1 | 100 | Activity [12]: Non-toxic; Activity [13]: Non-toxic
CCOC(=O)c1c(C(F)(F)F)[n+]([O-])c2ccccc2[n+]1[O-] | 4 | Non-toxic | 4 | Toxic | 1 | 100 | 
COC(=O)c1c(C(F)(F)F)[n+]([O-])c2ccc(C)cc2[n+]1[O-] | 13.7 | Toxic | 4 | Toxic | 0.3 | 96.1 | 
CCOC(=O)c1c(C(F)(F)F)[n+]([O-])c2ccc(C(F)(F)F)cc2[n+]1[O-] | 1 |  | 4.2 |  | 4.2 | 100 | Activity [14]: Non-toxic; Activity [15]: Non-toxic
COC(=O)c1c(C(F)(F)F)[n+]([O-])c2cc(C)c(C)cc2[n+]1[O-] | 5 |  | 4 |  | 0.8 | 91.6 | Activity [16]: Toxic; Activity [17]: Toxic
COC(=O)c1c(C(F)(F)F)[n+]([O-])c2ccc(OC)cc2[n+]1[O-] | 4.6 |  |  |  |  | 86.6 | Activity [7]: Toxic; Activity [8]: Toxic
COC(=O)c1c(C(F)(F)F)[n+]([O-])c2ccccc2[n+]1[O-] | 2.6 | Toxic | 19 | Toxic | 7.3 | 100 | 

Further lines, with some results ahead:

IC50 [6] [µM] | SMILES | Activity [1] | IC50 [2] [µM] | Activity [3] | selectivity ratio [4] | inhibition of growth at 25 µM [5] [%] | also measured
1.5 | COC(=O)c1c(C(F)(F)F)[n+]([O-])c2cc(F)c(F)cc2[n+]1[O-] | Non-toxic |  | Toxic |  | 100 | 
0.4 | CCOC(=O)c1c(C(F)(F)F)[n+]([O-])c2cc(F)c(F)cc2[n+]1[O-] | Non-toxic | 4 | Toxic | 10 | 100 | Ratio IC50 [9]: 18
4.8 | CCOC(=O)c1c(C(F)(F)F)[n+]([O-])c2ccc(C)cc2[n+]1[O-] |  | 7 |  | 1.4 | 100 | Activity [7]: Toxic; Activity [8]: Non-toxic
3.3 | CCOC(=O)c1c(C(F)(F)F)[n+]([O-])c2ccc(F)cc2[n+]1[O-] | Non-toxic | 0.5 | Toxic | 0.1 | 100 | 
2.9 | CCOC(=O)c1c(C(F)(F)F)[n+]([O-])c2cc(Cl)c(Cl)cc2[n+]1[O-] | Non-toxic |  | Non-toxic |  | 100 | 
1.8 | CCOC(=O)c1c(C(F)(F)F)[n+]([O-])c2ccc(Cl)cc2[n+]1[O-] | Non-toxic |  | Toxic |  | 100 | 
7.6 | CCOC(=O)c1c(C(F)(F)F)[n+]([O-])c2cc(C)c(C)cc2[n+]1[O-] |  | 4 |  | 0.5 | 87.5 | Activity [14]: Non-toxic; Activity [15]: Toxic
